# Patent US12714688B2, “Margaric acid decreases PIEZ02-mediated pain” (The United States of America, as represented by The …, priority 2020, dated 2026)
# What was measured:
# mice = test: Von Frey test after acute inflammation by topical AITC; assay type: in vivo, mouse; details: topical AITC; saline injected mice; filaments <0.16 g
# Procedure: Mice behavior: MA solution: MA was prepared in sterile Dulbecco's phosphate buffered saline, with 70 g/L fatty acid free bovine serum albumin (BSA; Sigma), and MA to a final concentration of 5 mM. The solution was filtered to avoid undissolved materials.
# Subjects: For the experiment 8-12 weeks old male and female C57B16/J mice (N=12; control n=6; male=3, female=3) MA (n=6; male=3, female=3) per experiment were used. Mice were housed under a 12 hr light dark cycle and granted access to food and water ad libitum.
# Treatment: Animals were put in two groups (control and MA) and given injections in the plantar of the left hind paw for 7 days prior behavioral assessment. Injections were given as follows: Mouse is restrained by their tail, foot, and over shoulders scruff. […]
# Mechanical threshold (Von Frey test): Punctate mechanical allodynia was measured using Von Frey monofilaments (Stoelting, Inc.) in varying grams of force (0.008-1 g). Animals were placed in small enclosures over a wire mesh and the plantar of the hind paw was poked with a filament and responses were recorded. Withdrawal responses were recorded when the animal lifted, shook, or licked the paw in response to stimulus presentation. […]
# mouse PIEZO2 = test: Whole-cell patch-clamp with mechanical indentation of N2A^Piezo1−/− cells transfected with Piezo2 variant 2 (V2); details: latrunculin A 1 μM for 1 h
# Procedure: (§1) Cell culture and electrophysiology: Piezo1 knock-out mouse N2A (N2A^Piezo1−/−) cells were a gift from Dr. Gary R. Lewin, human Merkel cell carcinoma cell line (MCC13 cells; Cell Bank Australia reference number: CBA1338) were obtained from Sigma, and DRG neurons were obtained from sacrificed mice. N2A^Piezo1−/− cells were cultured in Dulbecco's Modified Eagle Medium (DMEM), 5% penicillin streptomycin and 10% fetal bovine serum (FBS); MCC13 cells were cultured in RPMI 1640 (with 2 mM L-glutamine+25 mM HEPES; Sigma), 5% penicillin-streptomycin and 10% FBS and; DRG neurons were cultured in DMEM, 1% penicillin-streptomycin, 1% MEM vitamin solution, 1% L-glutamine, and 10% horse serum. Prior to electrophysiological measurements, N2A^Piezo1−/−, MCC13 and DRG neurons were supplemented overnight (≈18 h) with MA. […] MA was obtained from Nu-Chek Prep, INC. The cultured cells were maintained at 37° C., 95% relative humidity, and 5% CO2.
# For whole-cell recordings, the bath solution contained 140 mM NaCl, 6 mM KCl, 2 mM CaCl2), 1 mM MgCl2, 10 mM glucose, and 10 mM HEPES (pH 7.4; 300 mOsm). The pipette solution for voltage-clamp recordings contained: 140 mM CsCl, 5 mM EGTA, 1 mM CaCl2), 1 mM MgCl2, and 10 mM HEPES (pH 7.2); and for current clamp recordings: 140 mM KCl, 6 mM NaCl, 2 mM CaCl2), 1 mM MgCl2, 10 mM glucose, and 10 mM HEPES (pH 7.4; 300 mOsm); MA and bradykinin acetate salt (Sigma) perfused during experiments were dissolved in the bath solution to a final concentration of 300 μM for 2 min, and 1 μM for 5 min respectively; and for long exposure experiments bradykinin was supplemented to the culture medium and added to the cells 18-24 h prior recording. For cytoskeleton disruption experiments, N2A^Piezo1−/− were incubated in media supplemented with 1 μM latrunculin A (Cayman Chemicals) for 1 h prior recordings. Pipettes were made out of borosilicate glass (Sutter Instruments) and were fire-polished before use until a resistance between 3 and 5 MΩ was reached.
# During mechanical stimulation, currents were recorded at a constant voltage (−60 mV, voltage-clamp), and voltages were recorded without injecting current (current-clamp). Both variables were sampled at 100 kHz and low-pass filtered at 10 kHz using a MultiClamp™ 700 B amplifier and Clampex (Molecular Devices, LLC). […] Leak currents before mechanical stimulations were subtracted off-line from the current traces and data were digitally filtered at 2 kHz with ClampFit (Molecular Devices, LLC).
# Mechanical stimulation: For indentation assays, N2A^Piezo1−/−, MCC13 DRG neurons, and human iPSC374 derived neurons were mechanically stimulated with a heat-polished blunt glass pipette (3-4 μm) driven by a piezo servo controller (E625, Physik Instrumente). The blunt pipette was mounted on a micromanipulator at an ~45° angle and positioned 3-4 μm above from the cells without indenting them. Displacement measurements were obtained with a square-pulse protocol consisting of 1 μm incremental indentation steps, each lasting 200 ms with a 2-ms ramp in 10-s intervals. The threshold of mechano-activated currents for each experiment was defined as the indentation step that evoked the first current deflection from the baseline.
# [1] = tested on: PIEZO2-PIEZO1 beam chimera; test: Whole-cell patch-clamp of N2A^Piezo1−/− cells transfected with Piezo2-Piezo1 beam chimera; details: MA 100 μM 18 h; latrunculin A 1 μM for 1 h
# Procedure: as §1
# For whole-cell recordings, the bath solution contained 140 mM NaCl, 6 mM KCl, 2 mM CaCl2), 1 mM MgCl2, 10 mM glucose, and 10 mM HEPES (pH 7.4; 300 mOsm). The pipette solution for voltage-clamp recordings contained: 140 mM CsCl, 5 mM EGTA, 1 mM CaCl2), 1 mM MgCl2, and 10 mM HEPES (pH 7.2); and for current clamp recordings: 140 mM KCl, 6 mM NaCl, 2 mM CaCl2), 1 mM MgCl2, 10 mM glucose, and 10 mM HEPES (pH 7.4; 300 mOsm); MA and bradykinin acetate salt (Sigma) perfused during experiments were dissolved in the bath solution to a final concentration of 300 μM for 2 min, and 1 μM for 5 min respectively; and for long exposure experiments bradykinin was supplemented to the culture medium and added to the cells 18-24 h prior recording. For cytoskeleton disruption experiments, N2A^Piezo1−/− were incubated in media supplemented with 1 μM latrunculin A (Cayman Chemicals) for 1 h prior recordings. […]
# During mechanical stimulation, currents were recorded at a constant voltage (−60 mV, voltage-clamp), and voltages were recorded without injecting current (current-clamp). […]
# [2] = tested on: mechano-currents from DRG neurons; details: cited from earlier work
compound,measurement,setting,value
"C=CCN=C=S [AITC, Allyl isothiocyanate, reference compound]",withdrawal from von Frey filaments caused by AITC,mice,causes mice to withdraw their hind paws from even the lightest von Frey filaments
"C/C1=C/C(=O)O[C@@H]2C[C@@H](CC[C@H](C)/C=C\C=C\CC1)O[C@@](O)([C@@H]1CSC(=O)N1)C2 [latrunculin A, reference compound]",effect of latrunculin A on PIEZO2 inhibition by MA,mouse PIEZO2,enhances PIEZO2 inhibition by MA
same,effect of latrunculin A on PIEZO2 inhibition by MA,mouse PIEZO2; listed as Latrunculin A,pronounced leftward shift in the MA dose-response profile for PIEZO2
same,modulation of the MA effect on the chimera by latrunculin A,[1],not modulated by latrunculin A treatment
GsMTx-4,inhibition of mechano-currents,[2],failed to inhibit mechano-currents from DRG neurons
